Where two headings read alike, the source gives them in different places.
Assays:
Assay type in all cases: in vivo
[1] = system: Rat
Experimental: (§1) Using standard protocols, including the ones described above for administration to flies, a variety of agents were administered at different doses to mice, rats and flies and the LD for each agent was compared.

[2] = system: Fly
Experimental: The chemical is dissolved in water at or near its saturation point. Serial dilutions of this stock solution are used to rehydrate instant fly media (Fisher Scientific). Specifically, one toxicity assay will comprise of instant fly media rehydrated with pure stock solution of a chemical, while another will be rehydrated with a 10% solution of the chemical (in water). This format will be used to generate data over a 4 to 5 log dose range for each chemical tested.
A known quantity of embryos, typically between 40-50, is used as the input. Specifically, 40 to 50 embryos are counted and placed in the receptacle that contains the media/chemical mixture to be tested. The embryos may be counted manually or by automation (e.g., liquid suspension of embryos flowing through a diode). The larva feed on the media/chemical mixture. All aspects of development from larva stage to adult must proceed normally in the presence of the chemical. The only food and water source available to the larva and flies contains the chemical. […] Specifically, Iron, Copper, and zinc have been selected. Sensitive and accurate kits are commercially available to analyze these chemicals down to a concentration of 1 part per million. This will assign quantitative analyses to determine variability between larva in a test receptacle and between larva in different receptacles.
The developing larva and pupa are examined for normal growth and development. Then the adult flies are analyzed for lethality, sterility, developmental defects, and life span alterations. Lethality is determined by dividing the number of adult flies that eclose by the total number of embryos that were placed in the receptacle. Sterility is examined for both males and females by crossing them to normal flies. […] Finally the flies are allowed to live the natural span of their life to determine whether an effect occurred to either shorten or lengthen the average lifespan of the fly.
as §1

[3] = system: fruit fly; assay: AntiToxicity screen: fly survival with toxins with and without EDTA; settings: yeast paste: None
Text: This binding can occur in vitro or in vivo. In vivo binding can lead to neutralizing the toxicity of heavy metals to animals.

[4] = system: Mouse
Experimental: as §1

Q: For `CN(C)c1ccncc1` [4-dimethyl aminopyridine], which “Rat (oral LD50 mg/ml)” value ([1]; oral) is on record?
A: Its value is 250 mg/mL.

Q: What about the “Fly (oral LD50 mg/ml)” value ([2]; oral, chemical in fly media) of the same compound?
A: The value was “.15 mg/mL”.

Q: What does the source list for `[Cu]` [Copper]?
A: % survival ([3]; fly food: 0.4 mM Copper): 50%; % survival ([3]; fly food: 1.1 mM Copper): 0%

Q: For `N[C@@H](Cc1ccc(O)c(O)c1)C(=O)O` [L-dopa], which “Mouse (oral LD50 mg/ml)” value ([4]; oral) is on record?
A: Its value is 2363 mg/mL.

Q: What about the “Rat (oral LD50 mg/ml)” value ([1]; oral) of the same compound?
A: The value was 1780 mg/mL.

Q: What about the “Fly (oral LD50 mg/ml)” value ([2]; oral, chemical in fly media) of the same compound?
A: The value was “.7 mg/mL”.

Q: For `[Zn]` [Zinc], which “% survival” value ([3]; fly food: 2 mM Zinc) is on record?
A: Its value is 50%.

Q: What about the “% survival” value ([3]; fly food: 6.0 mM Zinc) of the same compound?
A: The value was 0%.

Q: For `O=S1(=O)OC(c2cc(Br)c(O)c(Br)c2)(c2cc(Br)c(O)c(Br)c2)c2ccccc21` [bromophenol blue], which “Fly (oral LD50 mg/ml)” value ([2]; oral, chemical in fly media) is on record?
A: The value was 10 mg/mL.

Q: Which results are given for `[Cl][Cd][Cl]` [cadmium chloride]?
A: Mouse (oral LD50 mg/ml) ([4]; oral): 60 mg/mL; Rat (oral LD50 mg/ml) ([1]; oral): 88 mg/mL; Fly (oral LD50 mg/ml) ([2]; oral, chemical in fly media): .1 mg/mL

Q: What does the source list for `Clc1cccc(Cl)c1N=C1NCCN1` [clonidine]?
A: Mouse (oral LD50 mg/ml) ([4]; in vivo, po): 135 mg/mL; Rat (oral LD50 mg/ml) ([1]; in vivo, po): 126 mg/mL; Fly (oral LD50 mg/ml) ([2]; in vivo, po): .07 mg/mL

Q: For `[Cl-].[Li+]` [lithium chloride], which “Mouse (oral LD50 mg/ml)” value ([4]; oral) is on record?
A: The value was 1165 mg/mL.

Q: What about the “Rat (oral LD50 mg/ml)” value ([1]; oral) of the same compound?
A: Its value is 526 mg/mL.

Q: And the “Fly (oral LD50 mg/ml)” value ([2]; oral, chemical in fly media)?
A: The value was “.4 mg/mL”.

Q: What does the source list for `COP(=O)(OC)C(O)C(Cl)(Cl)Cl` (stereo not shown) [metrifonate]?
A: toxicity category in mice ([4]; mice, oral LD50 category): moderate toxicity; Mouse (oral LD50 mg/ml) ([4]; oral): 300 mg/mL; Rat (oral LD50 mg/ml) ([1]; oral): 560 mg/mL; toxicity category in rats ([1]; rats, oral LD50 category): moderate toxicity; toxicity category in flies ([2]; flies, oral LD50 category): high toxic range; Fly (oral LD50 mg/ml) ([2]; oral, chemical in fly media): .04 mg/mL

Q: With `NC(=O)c1cccnc1` [niacinamide] as the compound, how does the “Mouse (oral LD50 mg/ml)” value ([4]; in vivo, po) read?
A: Its value is 2500 mg/mL.

Q: What about the “Rat (oral LD50 mg/ml)” value ([1]; in vivo, po) of the same compound?
A: Its value is 3500 mg/mL.

Q: What about the “Fly (oral LD50 mg/ml)” value ([2]; in vivo, po) of the same compound?
A: The value was 5 mg/mL.

Q: How did the “Mouse (oral LD50 mg/ml)” value ([4]; oral) turn out when `Nc1ccccc1N` [phenylenediamine] was run?
A: The value was 366 mg/mL.

Q: What about the “Rat (oral LD50 mg/ml)” value ([1]; oral) of the same compound?
A: The value was 510 mg/mL.

Q: What about the “Fly (oral LD50 mg/ml)” value ([2]; oral, chemical in fly media) of the same compound?
A: Its value is “.2 mg/mL”.

Q: What does the source list for `[N-]=[N+]=[N-]` [sodium azide]?
A: Mouse (oral LD50 mg/ml) ([4]; oral): 27 mg/mL; Rat (oral LD50 mg/ml) ([1]; oral): 27 mg/mL; Fly (oral LD50 mg/ml) ([2]; oral, chemical in fly media): .05 mg/mL

Q: `O.O.O.O.O.O.O.O.O.O.[Na+].[Na+].[O-]B1OB2OB([O-])OB(O1)O2` [sodium borate] was tested. Which “Mouse (oral LD50 mg/ml)” value ([4]; oral) did it give?
A: The value was 2000 mg/mL.

Q: And the “Rat (oral LD50 mg/ml)” value ([1]; oral)?
A: Its value is 2660 mg/mL.

Q: What about the “Fly (oral LD50 mg/ml)” value ([2]; oral, chemical in fly media) of the same compound?
A: Its value is 6.5 mg/mL.
